From ChEMBL document CHEMBL1124638, “2,4-Diamino-5-benzylpyrimidines and analogues as antibacterial agents. 10. 2,4-Diamino-5-(6-quinolylmethyl)- and -[(tetrahydro-6-quinolyl)methyl]pyrimidine derivatives. Further specificity studies” (J Med Chem, 1989)
Values after ≈ are worked out from the molar mass of the structure shown.

Columns and labels:
[1] = test system: Bordetella bronchiseptica; test: Comparative in vitro antibacterial activity with trimethoprim against Bordetella bronchiseptica CN385; assay type: functional
Citrobacter freundii [2] = test: Comparative in vitro antibacterial activity with trimethoprim against Citrobacter freundii 2200/77; assay type: functional
Dihydrofolate reductase [3] = molecular target: T1, Dihydrofolate reductase (Rattus norvegicus, UniProt Q920D2); test: Inhibitory activity against dihydrofolate reductase in rat liver; conditions: read-out: I50
T1 sequence (Q920D2 whole entry): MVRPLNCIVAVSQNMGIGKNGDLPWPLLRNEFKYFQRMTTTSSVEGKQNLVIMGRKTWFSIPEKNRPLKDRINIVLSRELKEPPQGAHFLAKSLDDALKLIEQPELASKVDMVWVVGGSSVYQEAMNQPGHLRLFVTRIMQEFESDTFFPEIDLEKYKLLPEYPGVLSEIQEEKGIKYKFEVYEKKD

Dihydrofolate reductase [4] = molecular target: Dihydrofolate reductase (Neisseria gonorrhoeae, UniProt P04174); test: Inhibitory activity against Dihydrofolate reductase in Neisseria gonorrhoeae; conditions: read-out: I50
Escherichia coli = test: Comparative in vitro antibacterial activity with trimethoprim against Escherichia coli CN314; assay type: functional
Klebsiella aerogenes = test: Comparative in vitro antibacterial activity with trimethoprim against Enterobacter aerogenes 2200/86; assay type: functional
[5] = test system: Mycolicibacterium smegmatis; test: Comparative in vitro antibacterial activity with trimethoprim against Mycobacterium smegmatis S 3254; assay type: functional
Proteus mirabilis = test: Comparative in vitro antibacterial activity with trimethoprim against Proteus mirabilis S2409; assay type: functional
Proteus vulgaris = test: Comparative in vitro antibacterial activity with trimethoprim against Proteus vulgaris CN329; assay type: functional
[6] = Comparative in vitro antibacterial activity with trimethoprim against Salmonella typhi CN512; assay type: functional, salmonella typhosa
Shigella flexneri = test: Comparative in vitro antibacterial activity with trimethoprim against Shigella flexneri CN6007; assay type: functional
Serratia marcescens = test: Comparative in vitro antibacterial activity with trimethoprim against Serratia marcescens CN2398; assay type: functional
Salmonella typhimurium = test: Comparative in vitro antibacterial activity with trimethoprim against Salmonella Typhimurium S 8587; assay type: functional, Salmonella enterica subsp. enterica serovar Typhimurium; conditions: Salmonella enterica
Streptococcus pyogenes = test: Comparative in vitro antibacterial activity of compound with trimethoprim against Streptococcus pyogenes CN10; assay type: functional
Staphylococcus aureus = test: Comparative in vitro antibacterial activity with trimethoprim against Staphylococcus aureus CN491; assay type: functional
Enterococcus faecalis = test: Comparative in vitro antibacterial activity with trimethoprim against Streptococcus faecalis CN478; assay type: functional
Streptococcus agalactiae = test: Comparative in vitro antibacterial activity with trimethoprim against Streptococcus agalactiae CN1143; assay type: functional
Vibrio cholerae = test: Comparative in vitro antibacterial activity with trimethoprim against Vibrio cholerae ATCC 14035; assay type: functional
Pasteurella multocida = test: Comparative in vitro antibacterial activity with trimethoprim against Pasteurella multocida ATCC 6587; assay type: functional
Klebsiella pneumoniae [7] = test: Comparative in vitro antibacterial activity with trimethoprim against Klebsiella pneumoniae CN3632; assay type: functional
[8] = Dissociation constant at 20 degree C; assay type: physicochemical
Citrobacter freundii [9] = test: Comparative in vitro antibacterial activity of compound with trimethoprim against Citrobacter freundii 2200/77; assay type: functional
Klebsiella pneumoniae [10] = test: Comparative in vitro antibacterial activity of compound with trimethoprim against Klebsiella pneumoniae CN3632; assay type: functional

Dihydrofolate reductase (Neisseria gonorrhoeae, UniProt P04174), sequence (P04174 whole entry): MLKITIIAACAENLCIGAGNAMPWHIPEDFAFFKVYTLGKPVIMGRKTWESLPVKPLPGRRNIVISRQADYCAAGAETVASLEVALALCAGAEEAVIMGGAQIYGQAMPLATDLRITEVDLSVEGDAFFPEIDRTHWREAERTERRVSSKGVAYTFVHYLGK

| SMILES | MIC [1] | MIC (Citrobacter freundii [2]) | IC50 (Dihydrofolate reductase [3]) | IC50 (Dihydrofolate reductase [4]) | MIC (Escherichia coli) | MIC (Klebsiella aerogenes) | MIC [5] | MIC (Proteus mirabilis) | MIC (Proteus vulgaris) | MIC [6] | MIC (Shigella flexneri) | MIC (Serratia marcescens) | MIC (Salmonella typhimurium) | MIC (Streptococcus pyogenes) | MIC (Staphylococcus aureus) | MIC (Enterococcus faecalis) | MIC (Streptococcus agalactiae) | MIC (Vibrio cholerae) | MIC (Pasteurella multocida) | MIC (Klebsiella pneumoniae [7]) | also measured |
| --- | --- | --- | --- | --- | --- | --- | --- | --- | --- | --- | --- | --- | --- | --- | --- | --- | --- | --- | --- | --- | --- |
| COc1cc(Cc2cnc(N)nc2N)cc2c1NCC(CO)C2 (stereo unspecified) | 30 µg/mL (≈ 95.1 µM) | 30 µg/mL (≈ 95.1 µM) | 64 µM | 0.41 µM | 10 µg/mL (≈ 31.7 µM) | 30 µg/mL (≈ 95.1 µM) | 10 µg/mL (≈ 31.7 µM) | > 30 µg/mL | 100 µg/mL (≈ 317 µM) | 10 µg/mL (≈ 31.7 µM) | 30 µg/mL (≈ 95.1 µM) | > 10 µg/mL | 10 µg/mL (≈ 31.7 µM) | 10 µg/mL (≈ 31.7 µM) | 3 µg/mL (≈ 9.51 µM) | 3 µg/mL (≈ 9.51 µM) | 10 µg/mL (≈ 31.7 µM) | 3 µg/mL (≈ 9.51 µM) | 30 µg/mL (≈ 95.1 µM) | 10 µg/mL (≈ 31.7 µM) |  |
| COc1cc(Cc2cnc(N)nc2N)cc2c1NCCC2 | 1 µg/mL (≈ 3.5 µM) | 10 µg/mL (≈ 35 µM) | 76 µM | 0.51 µM | 10 µg/mL (≈ 35 µM) | 3 µg/mL (≈ 10.5 µM) | 1 µg/mL (≈ 3.5 µM) | 3 µg/mL (≈ 10.5 µM) | 3 µg/mL (≈ 10.5 µM) | 3 µg/mL (≈ 10.5 µM) | 10 µg/mL (≈ 35 µM) | 3 µg/mL (≈ 10.5 µM) | 3 µg/mL (≈ 10.5 µM) | 3 µg/mL (≈ 10.5 µM) | 3 µg/mL (≈ 10.5 µM) | 3 µg/mL (≈ 10.5 µM) | 3 µg/mL (≈ 10.5 µM) | 1 µg/mL (≈ 3.5 µM) | 3 µg/mL (≈ 10.5 µM) | 3 µg/mL (≈ 10.5 µM) |  |
| CCc1cc(Cc2cnc(N)nc2N)cc2c1N(C)CCC2C (stereo unspecified) | 1 µg/mL (≈ 3.21 µM) | 3 µg/mL (≈ 9.63 µM) | 44 µM | 0.3 µM | 3 µg/mL (≈ 9.63 µM) | 1 µg/mL (≈ 3.21 µM) | 3 µg/mL (≈ 9.63 µM) | 3 µg/mL (≈ 9.63 µM) | 10 µg/mL (≈ 32.1 µM) | 10 µg/mL (≈ 32.1 µM) | 10 µg/mL (≈ 32.1 µM) | 3 µg/mL (≈ 9.63 µM) | 1 µg/mL (≈ 3.21 µM) | 1 µg/mL (≈ 3.21 µM) | 0.03 µg/mL (≈ 0.0963 µM) | 0.03 µg/mL (≈ 0.0963 µM) | 1 µg/mL (≈ 3.21 µM) | 3 µg/mL (≈ 9.63 µM) | 3 µg/mL (≈ 9.63 µM) | 3 µg/mL (≈ 9.63 µM) |  |
| COc1cc(Cc2cnc(N)nc2N)cc2c1NCC(COC(C)=O)C2 (stereo unspecified) | 10 µg/mL (≈ 28 µM) | 30 µg/mL (≈ 83.9 µM) | 61 µM | 0.16 µM | 30 µg/mL (≈ 83.9 µM) | 30 µg/mL (≈ 83.9 µM) | 30 µg/mL (≈ 83.9 µM) | 30 µg/mL (≈ 83.9 µM) | 30 µg/mL (≈ 83.9 µM) | 30 µg/mL (≈ 83.9 µM) | 30 µg/mL (≈ 83.9 µM) | > 10 µg/mL | 30 µg/mL (≈ 83.9 µM) | 3 µg/mL (≈ 8.39 µM) | 10 µg/mL (≈ 28 µM) | 3 µg/mL (≈ 8.39 µM) | 10 µg/mL (≈ 28 µM) | 10 µg/mL (≈ 28 µM) | 30 µg/mL (≈ 83.9 µM) | 100 µg/mL (≈ 280 µM) |  |
| CCN1CC(CO)Cc2cc(Cc3cnc(N)nc3N)cc(OC)c21 (stereo unspecified) | 30 µg/mL (≈ 87.4 µM) | 100 µg/mL (≈ 291 µM) | 440 µM | 2.6 µM | 100 µg/mL (≈ 291 µM) | 10 µg/mL (≈ 29.1 µM) | 100 µg/mL (≈ 291 µM) | > 30 µg/mL | > 100 µg/mL | 100 µg/mL (≈ 291 µM) | 100 µg/mL (≈ 291 µM) | > 10 µg/mL | 30 µg/mL (≈ 87.4 µM) | 10 µg/mL (≈ 29.1 µM) | 10 µg/mL (≈ 29.1 µM) | 3 µg/mL (≈ 8.74 µM) | 30 µg/mL (≈ 87.4 µM) | 100 µg/mL (≈ 291 µM) | 100 µg/mL (≈ 291 µM) | 30 µg/mL (≈ 87.4 µM) |  |
| COc1cc(Cc2cnc(N)nc2N)cc2c1N(CCO)CCC2C (stereo unspecified) | 10 µg/mL (≈ 29.1 µM) | 3 µg/mL (≈ 8.74 µM) | 142 µM | 0.61 µM | 30 µg/mL (≈ 87.4 µM) | 30 µg/mL (≈ 87.4 µM) | 3 µg/mL (≈ 8.74 µM) | 10 µg/mL (≈ 29.1 µM) | 10 µg/mL (≈ 29.1 µM) | 30 µg/mL (≈ 87.4 µM) | 10 µg/mL (≈ 29.1 µM) | 10 µg/mL (≈ 29.1 µM) | 10 µg/mL (≈ 29.1 µM) | 3 µg/mL (≈ 8.74 µM) | 1 µg/mL (≈ 2.91 µM) | 0.3 µg/mL (≈ 0.874 µM) | 1 µg/mL (≈ 2.91 µM) | 3 µg/mL (≈ 8.74 µM) | 10 µg/mL (≈ 29.1 µM) | 10 µg/mL (≈ 29.1 µM) |  |
| COc1cccc2c1N(C)CCC2C (stereo unspecified) |  |  |  |  |  |  |  |  |  |  |  |  |  |  |  |  |  |  |  |  | pKa [8]: 6.51 |
| CC1CCNc2ccc(Cc3cnc(N)nc3N)cc21 (stereo unspecified) | 10 µg/mL (≈ 37.1 µM) | 30 µg/mL (≈ 111 µM) | 22 µM | 0.4 µM | 30 µg/mL (≈ 111 µM) | 10 µg/mL (≈ 37.1 µM) | 3 µg/mL (≈ 11.1 µM) | 10 µg/mL (≈ 37.1 µM) | 10 µg/mL (≈ 37.1 µM) | 10 µg/mL (≈ 37.1 µM) | 30 µg/mL (≈ 111 µM) | 10 µg/mL (≈ 37.1 µM) | 10 µg/mL (≈ 37.1 µM) | 1 µg/mL (≈ 3.71 µM) | 3 µg/mL (≈ 11.1 µM) | 3 µg/mL (≈ 11.1 µM) | 3 µg/mL (≈ 11.1 µM) | 3 µg/mL (≈ 11.1 µM) | 3 µg/mL (≈ 11.1 µM) | 30 µg/mL (≈ 111 µM) |  |
| CC1CC(C)c2cc(Cc3cnc(N)nc3N)cc(Cl)c2N1 (stereo unspecified) | 100 µg/mL (≈ 315 µM) | 100 µg/mL (≈ 315 µM) | 41 µM | 0.24 µM | 100 µg/mL (≈ 315 µM) | 100 µg/mL (≈ 315 µM) | 10 µg/mL (≈ 31.5 µM) | 30 µg/mL (≈ 94.4 µM) | 100 µg/mL (≈ 315 µM) | 100 µg/mL (≈ 315 µM) | 300 µg/mL (≈ 944 µM) | > 10 µg/mL | 100 µg/mL (≈ 315 µM) | 3 µg/mL (≈ 9.44 µM) | 3 µg/mL (≈ 9.44 µM) | 3 µg/mL (≈ 9.44 µM) | 3 µg/mL (≈ 9.44 µM) | 3 µg/mL (≈ 9.44 µM) | 30 µg/mL (≈ 94.4 µM) | 100 µg/mL (≈ 315 µM) |  |
| COCCOc1cc(Cc2cnc(N)nc2N)cc2c1NCCC2 | 30 µg/mL (≈ 91.1 µM) |  | 170 µM | 0.53 µM | 100 µg/mL (≈ 304 µM) | 100 µg/mL (≈ 304 µM) | 3 µg/mL (≈ 9.11 µM) | > 30 µg/mL | 100 µg/mL (≈ 304 µM) | 100 µg/mL (≈ 304 µM) | 100 µg/mL (≈ 304 µM) | > 10 µg/mL | 100 µg/mL (≈ 304 µM) | 3 µg/mL (≈ 9.11 µM) | 10 µg/mL (≈ 30.4 µM) | 3 µg/mL (≈ 9.11 µM) | 10 µg/mL (≈ 30.4 µM) | 10 µg/mL (≈ 30.4 µM) | 30 µg/mL (≈ 91.1 µM) |  | MIC (Citrobacter freundii [9]): 100 µg/mL (≈ 304 µM); MIC (Klebsiella pneumoniae [10]): 100 µg/mL (≈ 304 µM) |
